We go through 28 compounds from ChEMBL document CHEMBL3734677, “EVALUATION OF AROMATIC 6-SUBSTITUTED THIENOPYRIMIDINES AS SCAFFOLDS AGAINST PARASITES THAT CAUSE TRYPANOSOMIASIS, LEISHMANIASIS, AND MALARIA” (Medchemcomm, 2015).

The subject of data set [1] is Trypanosoma brucei. Briefly: Antiparasitic activity against Trypanosoma brucei after 48 hrs by cytometry. It counts as functional, organism-based.
The subject of data set [2] is HepG2. Put plainly: Cytotoxicity against human HepG2 cells by MTT assay. It counts as cell-based. To be noted: hepg2.
Data set [3] relates to Leishmania major. Put plainly: Antiparasitic activity against Leishmania major amastigotes. In kind it is functional, organism-based. Conditions: for pEC50: Leishmania major, read-out: EC50.
For data set [4], the system named is Plasmodium falciparum. Briefly: Antiparasitic activity against Plasmodium falciparum D6. In kind it is functional, organism-based. To be noted: for pEC50: Plasmodium falciparum, D6, read-out: EC50.
The subject of data set [5] is Trypanosoma cruzi. Put plainly: Antiparasitic activity against Trypanosoma cruzi. In kind it is functional, organism-based.
The subject of data set [6] is Leishmania major. Briefly: Antiparasitic activity against Leishmania major promastigotes. It counts as functional, organism-based. To be noted: for pEC50: Leishmania major, read-out: EC50.
Data set [7] relates to Trypanosoma cruzi. Briefly: Antiparasitic activity against Trypanosoma cruzi at 10 uM. It counts as functional.
The test system of data set [8] is Trypanosoma brucei. Put plainly: Antiparasitic activity against Trypanosoma brucei at 5 uM after 48 hrs by cytometry. In kind it is functional.
Data set [9] in a line: Selectivity ratio, ratio of EC50 for Plasmodium falciparum C235 to EC50 for Plasmodium falciparum D6. It counts as functional.
Data set [10] in a line: Selectivity ratio, ratio of EC50 for Plasmodium falciparum W2 to EC50 for Plasmodium falciparum D6. It counts as functional.

pEC50: −log10 of the molar value.

The pEC50 is the negative decadic logarithm of the EC50, by convention in mol/L. A word on the inhibition: it is the share of the control response that was lost under treatment. The low end stands for a response near the control, the high end for a response far below the control.

As for `CC(C)(C)NS(=O)(=O)c1ccccc1-c1cc2ncnc(Nc3ccc(OCc4cccc(F)c4)c(Cl)c3)c2s1`, the pEC50 in [1] is 5.92; in data set [3] it was 5.63; in [4], 5.97; in data set [5] it was 6.17; in [6], < 4.70. Also, the Activity entry in data set [2] is “Non-toxic”.
For the compound `Fc1cccc(COc2ccc(Nc3ncnc4sc(-c5cccc(N6CCOCC6)c5)cc34)cc2Cl)c1`, the negative logarithm of the EC50 (pEC50) in data set [1] is 6.40; in [3], 5.59; in [4] it was 6.28; in data set [5] it was 5.66; in data set [6] it was < 4.70. Moreover, in data set [2], the Activity result was “Non-toxic”.
As for `Fc1cccc(COc2ccc(Nc3ncnc4ccccc34)cc2Cl)c1`, the pEC50 in data set [1] was 5.89; in data set [3], 4.91; in [4], 5.27; in data set [5], 5.62; in [6], 5.76. In data set [2], the Activity entry is on record as “Non-toxic”.
For `CC(C)(C)OCc1ccc(-c2cc3ncnc(Nc4ccc(OCc5cccc(F)c5)c(Cl)c4)c3s2)cc1`, the pEC50 is 6.05 in [1]; < 4.82 in data set [3]; 5.78 in data set [4]; 4.52 in [5]; < 4.70 in data set [6]. In addition, the Activity entry in [2] is listed as “Non-toxic”.
Turning to `CC(C)(C)NS(=O)(=O)c1ccccc1-c1ccc2ncnc(Nc3ccc(OCc4cccc(F)c4)c(Cl)c3)c2c1`, the pEC50 in data set [1] is 5.33; in [5], 5.19. Also, in [2], the Activity entry is listed as “Non-toxic”. Further, the EC50 entry in data set [3], in [4] and in [6] was “ND(Insoluble)” each time.
In the case of `CC(C)(C)OCc1ccc(-c2ccc3ncnc(Nc4ccc(OCc5cccc(F)c5)c(Cl)c4)c3c2)cc1`, the pEC50 was 6.66 in data set [1]; 5.39 in data set [3]; 6.22 in [4]; 5.66 in data set [5]; < 4.70 in data set [6]. In addition, in [2], the Activity entry was “Non-toxic”.
For `Oc1ccc(-c2cc3ncnc(Nc4ccc(OCc5cccc(F)c5)c(Cl)c4)c3s2)cc1`, the pEC50 in [1] was 5.66; in [3], 5.80; in data set [4], 6.36; in [5] it was 6.12; in data set [6] it was < 4.70. For the same compound, the Activity entry in data set [2] is listed as “Non-toxic”.
For the compound `O=C(c1cccc(-c2cc3c(Nc4ccc(OCc5cccc(F)c5)c(Cl)c4)ncnc3s2)c1)N1CCCCC1`, the negative-log EC50 (pEC50) in [1] is 6.48; in [3] it was < 4.82; in data set [4], 5.68; in data set [5], < 4.30; in data set [6], < 4.70. Further, the Activity entry in data set [2] was “Non-toxic”.
Regarding `Fc1cccc(COc2ccc(Nc3ncnc4cc(-c5ccccc5)sc34)cc2Cl)c1`, the pEC50 was 5.55 in data set [1], < 4.82 in [3], 5.53 in [4] and 5.09 in data set [6]. In data set [2], the Activity result is “Non-toxic”. This compound displayed an inhibition at 10 µM in data set [7] of 0%.
With `CC(C)(C)OCc1ccc(-c2cc3c(Nc4ccc(OCc5cccc(F)c5)c(Cl)c4)ncnc3s2)cc1`, the pEC50 in [1] was 5.80; in data set [3], 5.69; in [4], 5.11; in [6], < 4.70. The Activity result in data set [2] was “Non-toxic”. For the same compound, the inhibition at 10 µM in data set [7] turned out to be 17%.
As to `Fc1cccc(COc2ccc(Nc3ncnc4ccc(-c5cc6ccccc6s5)cc34)cc2Cl)c1`, the pEC50 in data set [1] was 5.22; in data set [3] it was < 4.82; in [4], 6.04; in data set [5] it was < 4.30; in data set [6], < 4.70. In data set [2], the Activity entry is recorded as “Non-toxic”.
Turning to `Fc1cccc(COc2ccc(Nc3ncnc4sc(-c5cc6ccccc6s5)cc34)cc2Cl)c1`, the pEC50 in [1] is 5.54; in data set [3], < 5.52; in data set [4] it was < 5.40; in [6] it was < 5.52. Further, the Activity entry in data set [2] is on record as “Non-toxic”. This compound also gave an inhibition at 10 µM in data set [7] of 49%.
On to `Fc1cccc(COc2ccc(Nc3ncnc4cc(-c5cccc(N6CCOCC6)c5)sc34)cc2Cl)c1`, for which the Activity entry in data set [2] is recorded as “Non-toxic”. Besides, the pEC50 in data set [3] was 5.27; in data set [4] it was 6.07; in [5], < 4.30; in data set [6], < 4.70. The inhibition at 5 µM in [8] came to 42%.
Take `Fc1cccc(COc2ccc(Nc3ncnc4ccsc34)cc2Cl)c1`: the Activity entry in data set [2] is “Non-toxic”. Besides, the pEC50 in [3] is < 4.82; in [4] it was 4.79; in data set [5], 4.57; in data set [6], 5.25. This compound registered an inhibition at 5 µM in data set [8] of 1%.
Turning to `Fc1cccc(COc2ccc(Nc3ncnc4cc(-c5ccc(N6CCOCC6)cc5)sc34)cc2Cl)c1`, the pEC50 in data set [1] is 6.33; in data set [3] it was < 4.82; in data set [4], 5.51; in data set [6], < 4.70. Also, the Activity entry in data set [2] was “Non-toxic”. Besides, the inhibition at 10 µM in data set [7] stood at 0%.
As to `CC(C)(C)NS(=O)(=O)c1ccccc1-c1cc2c(Nc3ccc(OCc4cccc(F)c4)c(Cl)c3)ncnc2s1`, the pEC50 in data set [1] is 6.30; in data set [3], < 4.82; in data set [4] it was < 4.82; in data set [5], < 4.30; in data set [6], < 4.70. In [2], the Activity entry is “Non-toxic”.
As to `Fc1cccc(COc2ccc(Nc3ncnc4cc(-c5ccc(CN6CCOCC6)cc5)sc34)cc2Cl)c1`, the negative logarithm of the EC50 (pEC50) in data set [1] was 5.96; in data set [3], < 4.82; in [4], 7.57; in data set [5], < 4.30; in data set [6] it was 6.66. Further, the Activity entry in data set [2] was “Non-toxic”. For the same compound, the Ratio EC50 in [9] was < 3.
Take `CS(=O)(=O)c1cccc(-c2cc3ncnc(Nc4ccc(OCc5cccc(F)c5)c(Cl)c4)c3s2)c1`: the pEC50 was 5.85 in data set [1]; < 5.52 in data set [3]; 6.19 in data set [4]; 5.57 in data set [5]; < 5.52 in data set [6]. For the same compound, the Activity entry in data set [2] was “Non-toxic”. Moreover, the Ratio EC50 in [10] and in data set [9] was < 3 throughout.
Turning to `O=C(c1cccc(-c2cc3ncnc(Nc4ccc(OCc5cccc(F)c5)c(Cl)c4)c3s2)c1)N1CCCCC1`, the Activity result in data set [2] is listed as “Non-toxic”. Further, the pEC50 in data set [3] was 5.51; in data set [4], 5.93; in data set [5], 5.49; in data set [6] it was < 4.70. Moreover, in data set [8], the inhibition at 5 µM was determined as 46%.
For `Fc1cccc(COc2ccc(Nc3ncnc4ccc(-c5ccccc5Oc5ccccc5)cc34)cc2Cl)c1`, in data set [2], the Activity result is recorded as “Non-toxic”. Moreover, the pEC50 in [3] was < 4.82; in [4], 5.24; in data set [6], 5.16.
As to `Fc1cccc(COc2ccc(Nc3ncnc4cc(-c5ccccc5Oc5ccccc5)sc34)cc2Cl)c1`, in [2], the Activity entry was “Non-toxic”. Besides, the pEC50 is 5.46 in data set [3], 5.21 in data set [4], < 4.30 in data set [5] and < 4.70 in [6]. Moreover, in data set [8], the inhibition at 5 µM turned out to be 10%.
Turning to `CS(=O)(=O)c1cccc(-c2ccc3ncnc(Nc4ccc(OCc5cccc(F)c5)c(Cl)c4)c3c2)c1`, the pEC50 was 5.49 in [1]; 5.33 in [3]; 6.28 in data set [4]; 5.30 in data set [5]; 5.46 in data set [6]. For the same compound, in data set [2], the Activity result was “Non-toxic”. For the same compound, the Ratio EC50 in data set [10] and in [9] was < 3 in each case.
As for `Cc1cc(-c2ccc3ncnc(Nc4ccc(OCc5cccc(F)c5)c(Cl)c4)c3c2)cnc1N1CCOCC1`, the pEC50 in data set [1] is 6.00; in data set [3], 5.94; in [4], 6.59; in [6], < 4.70. Further, the Activity result in data set [2] is “Non-toxic”. In data set [7], this compound had an inhibition at 10 µM of 49%. For the same compound, the Ratio EC50 in data set [10] and in [9] was < 3 in each case.
For `Fc1cccc(COc2ccc(Nc3ncnc4sc(-c5ccccc5Oc5ccccc5)cc34)cc2Cl)c1`, the pEC50 is 5.92 in data set [1], < 4.82 in data set [3], 4.97 in [4] and < 4.70 in [6]. The Activity result in [2] was “Non-toxic”. Further, testing at 10 µM in data set [7] gave an inhibition of 45%.
For the compound `CS(=O)(=O)c1cccc(-c2cc3c(Nc4ccc(OCc5cccc(F)c5)c(Cl)c4)ncnc3s2)c1`, the pEC50 was 5.89 in [1]; < 4.82 in data set [3]; 6.28 in [4]; 5.62 in data set [5]; 4.93 in data set [6]. Also, the Activity entry in data set [2] is recorded as “Non-toxic”. Further, the Ratio EC50 in data set [10] and in data set [9] was < 3 throughout.
As to `Cc1cc(-c2cc3c(Nc4ccc(OCc5cccc(F)c5)c(Cl)c4)ncnc3s2)cnc1N1CCOCC1`, the pEC50 in [1] is 6.38; in [3], < 5.52; in data set [4], 6.55; in [6] it was < 5.52. The Activity result in data set [2] is on record as “Non-toxic”. In data set [7], this compound came in with an inhibition at 10 µM of 29%. Besides, the Ratio EC50 in data set [10] and in [9] was < 3 in each case.
For the compound `O=C(c1cccc(-c2ccc3ncnc(Nc4ccc(OCc5cccc(F)c5)c(Cl)c4)c3c2)c1)N1CCCCC1`, in data set [2], the Activity entry is given as “Non-toxic”. The pEC50 in [3] is < 4.82; in data set [4], 6.29; in data set [5], < 4.30; in [6], < 5.52.
Consider `Oc1ccc(-c2ccc3ncnc(Nc4ccc(OCc5cccc(F)c5)c(Cl)c4)c3c2)cc1`, for which the pEC50 in [1] was 5.19; in data set [3] it was < 4.82; in [4] it was < 4.70; in data set [5] it was < 4.30; in data set [6] it was < 4.70. For the same compound, the Activity entry in data set [2] is listed as “Non-toxic”.
